Experimental findings from ChEMBL document CHEMBL1131491, “Comparative binding energy analysis of HIV-1 protease inhibitors: incorporation of solvent effects and validation as a powerful tool in receptor-based drug design” (J Med Chem, 1998) are described below.

In this test the target is Human immunodeficiency virus type 1 protease (Human immunodeficiency virus 1, UniProt Q72874). Put plainly: Inhibitory activity against HIV-1 protease.

As a reminder, the IC50 is the concentration that gives 50% inhibition. The low end stands for inhibition by little substance, the high end for a need for much substance. On to `CC(C)(C)OC(=O)N[C@@H](Cc1ccccc1)[C@@H](O)CC(=O)N[C@H]1c2ccccc2C[C@H]1O`, for which half-maximal inhibition (IC50) was put at 562 nM.

For the molecule `CC(C)(C)OC(=O)N[C@@H](Cc1ccccc1)[C@@H](O)C[C@@H](Cc1ccccc1)C(=O)N[C@H]1C=CC[C@H]1O`, the midpoint of inhibition, the IC50, lay at 9.55 nM.

In turn, `CC(C)(C)OC(=O)N[C@@H](Cc1ccccc1)[C@@H](O)C[C@@H](Cc1ccccc1)C(=O)N[C@H]1c2ccccc2CC[C@H]1O` gave a half-inhibitory concentration (IC50) of 0.692 nM.

Turning to `CC(C)(C)NC(=O)[C@@H]1C[C@@H]2CCCC[C@@H]2CN1C[C@@H](O)C[C@@H](Cc1ccccc1)C(=O)N[C@H]1c2ccccc2CC1O` (some centres not stated), the 50% inhibitory concentration (IC50) was 7.59 nM.

In turn, `CC(C)(C)NC(=O)[C@@H]1C[C@@H]2CCCC[C@@H]2CN1C[C@@H](O)[C@H](Cc1ccccc1)NC(=O)OC(C)(C)C` showed an IC50 of 3020 nM.

Take `CC(C)(C)OC(=O)N[C@@H](Cc1ccccc1)[C@@H](O)C[C@@H](Cc1ccccc1)C(=O)N[C@H]1c2ccccc2OC[C@H]1O`: the IC50 was 0.178 nM.

`C[C@@H](NC(=O)[C@H](Cc1ccccc1)C[C@H](O)[C@H](Cc1ccccc1)NC(=O)OC(C)(C)C)c1ccccc1`: the concentration for half-maximal inhibition (IC50) is 145 nM.
